In brackets after ≈: the same amount, converted by molar mass. Entries after “also recorded” stand apart in the source; their conditions may differ. Like-named read-outs stand apart in the source and are kept apart here.
What was measured:
[1] = Water solubility (suspension in water or PBS-buffer, HPLC)
Procedure: Water Solubility: Paclitaxel or paclitaxel prodrugs (5, 6, 8, 11) were suspended in water or PBS-buffer (pH 7.4) until a concentration was reached of 2 mg/ml. The suspensions were sonicated for 15 minutes and centrifuged (13000 g) for 10 minutes (Nicolaou, K. C. et al. Nature 1993, 364, 464-466). The above fluid was analyzed, using HPLC. The paclitaxel (prodrug) concentration was determined using paclitaxel standards in methanol.
HPLC: Rheodyne injection valve (20 μl loop); Lichrospher 5RP18 column (200×3 mm, Chrompack); UV-detector (Model 759A, Applied Biosystems); eluent: CH3CN/MeOH/H2O: 5/1/4 in 10 mM NH4OAc (pH 5.0) (Willey, T. A. J. Chromatography 1993, 621, 231-238). The detection of the (pro)drugs was performed at 226 nm, where it is supposed that the extinction coefficients of paclitaxel and paclitaxel prodrugs are equal. The concentrations were determined by measuring the relative area of paclitaxel or the paclitaxel prodrugs.

[2] = Stability in PBS-buffer (pH 7.4), degradation to paclitaxel; assay type: physicochemical; conditions: for stability in PBS buffer: PBS-buffer pH 7.4
Procedure: The paclitaxel prodrugs (5, 6, 8, 11) were dissolved in water, sonicated and centrifuged. 100 μl of the above fluid was mixed with 400 μl of plasma (heparin) or PBS-buffer (pH7.4), respectively, in such way that the concentration of the prodrug was about 0.5 mg/mL. […] After mixing for 2 minutes (using a vortex), this mixture was centrifuged (2 minutes, 13000 g) and 100 μl EtOAc was evaporated (30 minutes, in vacuo). The (pro)drugs were dissolved in 50 μl eluent and analyzed by HPLC (Longnecker, S. M. Cancer Treat Rep. 1987, 71, 53-59). The efficiency for the extraction of paclitaxel was about 80%.

[3] = Stability in human plasma, degradation to paclitaxel; assay type: in vitro ADME; conditions: for T1/2 Human Plasma: human plasma (heparin), 37° C., time in which 50% of the analog is degraded to paclitaxel
Procedure: The paclitaxel prodrugs (5, 6, 8, 11) were dissolved in water, sonicated and centrifuged. 100 μl of the above fluid was mixed with 400 μl of plasma (heparin) or PBS-buffer (pH7.4), respectively, in such way that the concentration of the prodrug was about 0.5 mg/mL. The plasma or PBS-buffer, respectively, was incubated at 37° C. and on different points in time (T=0, 0.5, 1, 4, 20, 48 hours) 50 μl was extracted with 150 μl of EtOAc. After mixing for 2 minutes (using a vortex), this mixture was centrifuged (2 minutes, 13000 g) and 100 μl EtOAc was evaporated (30 minutes, in vacuo). The (pro)drugs were dissolved in 50 μl eluent and analyzed by HPLC (Longnecker, S. M. Cancer Treat Rep. 1987, 71, 53-59). The efficiency for the extraction of paclitaxel was about 80%.

MCF7 Breast cancer = assay: Antiproliferative SRB assay, MCF7; assay type: cell-based, human; conditions: 37° C. 72 h, vs untreated cells
Procedure: (§1) Determination of the IC50-values for the new synthesized prodrugs have been determined with a variety of cell lines and have been compared with the IC50-value of paclitaxel 1 (see table II) Compounds 1, 5, 8, 11,:
(§2) The following human tumor cell lines were used:
(§3) MCF7 is estrogen receptor ER+/Progesterone receptor PgR+ and EVSA-T is ER-/PgR-.
(§4) Prior to the experiments a myocoplasma test was carried out on all cell lines and found to be negative. All cell lines, except ETSA-T, were maintained in a continuous logarithmic culture in RPMI medium with Hepes and Phenol red supplemented with 10% bovine calf serum (BCS), penicillin 111 IU/ml, streptomycin 111 μg/ml, gentamycin 46 μg/ml and insulin 10.6 μg/ml. EVSA-T was maintained in DMEM with 5% BCS and antibiotics as described. The cells were mildly trypsinized for passage and for use in experiments.
(§5) The compounds of this invention were dissolved to a concentration of 177147 ng/ml as follows:
(§6) On day 0, 200 μl of trypsinized tumor cells (2*10^3 cells/well) were plated in 96-wells flatbottom microtiter plates (Costar, no. 3799, Badhoevedorp, The Netherlands). The plates were preincubated 24 hr at 37° C., 5% CO2 to allow the cells to adhere.
(§7) […] The final volume of column 3 was adjusted to 200 μl with PBS. Column 2 was used for the blank. To column 1 PBS was added to diminish interfering evaporation.
(§8) […] Subsequently the cells were fixed with 10% trichloroacetic acid in Milli Q water (Millipore, Etten Leur, The Netherlands) and placed at 4° C. for one hour.
(§9) After five washings with tap water, the cells were stained for at least 15 min. with 0.4% SRB, dissolved in 1% acetic acid, and subsequently washed with 1% acetic acid to remove the unbound stain. The plates were air dried and the bound protein was dissolved by using 150 μl 10 mmol/l tris base. The absorbance was read at 540 nm using an automatic microplate reader (Titertec, Flow Laboratories LtD., Irvine, Scotland). Data were used for construction of concentration-response curves and determination of the IC50-value.

EVSA-T Breast cancer = assay: Antiproliferative SRB assay, EVSA-T; assay type: cell-based, human; conditions: 37° C. 72 h, vs untreated cells
Procedure: as §1, §2, §3, §4, §5, §6, §7, §8, §9

WIDR Colon cancer = assay: Antiproliferative SRB assay, WIDR; assay type: cell-based, human; conditions: vs untreated cells
Source text: as §1, §2
(§10) Cell lines WIDR, M19 MEL, A498 and IGROV belong to the currently used anti-cancer screening panel of the National Cancer Institute, USA (Skeham et al., J. Nat. Cancer Inst. 85: 1107-1112, 1990).
as §4, §5, §6, §7, §8, §9

IGROV Ovarian cancer = assay: Antiproliferative SRB assay, IGROV; assay type: cell-based, human; conditions: 37° C. 72 h, vs untreated cells
Source text: as §1, §2, §10, §4, §5, §6, §7, §8, §9

M19 MEL Melanoma = assay: Antiproliferative SRB assay, M19 MEL; assay type: cell-based, human; conditions: vs untreated cells
Source text: as §1, §2, §10, §4, §5, §6, §7, §8, §9

A498 Renal cancer = assay: Antiproliferative SRB assay, A498; assay type: cell-based, human; conditions: 37° C. 72 h, vs untreated cells
Source text: as §1, §2, §10, §4, §5, §6, §7, §8, §9

H226 = assay: Antiproliferative SRB assay, H226; assay type: cell-based, human; conditions: vs untreated cells
Procedure: as §1, §2
HA266 non small cell lung cancer
as §4, §5, §6, §7, §8, §9

human tumor cell lines = assay: Cytotoxic activity in human tumor cell lines, overall comparison with paclitaxel; assay type: cell-based
Procedure: as §1, §2, §6
On day 2, 100 μl of the highest drug concentration was added to the wells of column 12 and from there diluted 3-fold to column 3 by serial transfer of 100 μl using an 8 channel micropipette. The final volume of column 3 was adjusted to 200 μl with PBS. Column 2 was used for the blank. To column 1 PBS was added to diminish interfering evaporation.
On day 7 the incubation was terminated by washing the plates twice with PBS. […]
After five washings with tap water, the cells were stained for at least 15 min. with 0.4% SRB, dissolved in 1% acetic acid, and subsequently washed with 1% acetic acid to remove the unbound stain. […] The absorbance was read at 540 nm using an automatic microplate reader (Titertec, Flow Laboratories LtD., Irvine, Scotland). […]

OVCAR-3 cells = assay: In vitro antiproliferative effects, OVCAR-3; assay type: cell-based, human; conditions: for IC50: 37° C. 72 h, vs untreated cells
Procedure: The human tumor cell line OVCAR-3 was used. OVCAR is an ovarium carcinoma.
In vitro antiproliferative effects: paclitaxel or paclitaxel prodrugs were dissolved in DMSO to give a concentration of 5 mM. Concentrations were verified by measuring the OD at 226 nm. The antiproliferative effects of drugs and prodrugs were determined with the use of OVCAR-3 cells. Cells in supplemented tissue culture medium (DMEM, 10% fetal calf serum with 50 IU/ml penicillin and 50 microgram/ml streptomycin) were seeded in triplicate in 96-well culture plates (5000/well, 100 microliter). After 24 h, 100 microliter of culture medium containing drug or prodrug was added to give final concentrations ranging from 1 picomolar to 10 micromolar.
The cells were incubated for an additional 72 h, fixed with 10% trichoroacetic acid and stained with sulforhodamine B. The absorbance at 540 nm was read and the antiproliferative effects were expressed as IC50 values, inhibition when compared with control cell growth (Houba et al. Bioconj. Chem. 1996, 7, 606-611).

microtubule assembly = conditions: SAR studies, literature; cited from earlier work
[4] = SAR studies, literature; cited from earlier work

SMILES	Water Solubility [1]	degradation to paclitaxel in human plasma [3]	T1/2 Human Plasma [3]	IC50 MCF7 (MCF7 Breast cancer)	IC50 EVSA-T (EVSA-T Breast cancer)	IC50 WIDR (WIDR Colon cancer)	IC50 IGROV (IGROV Ovarian cancer)	IC50 M19 MEL (M19 MEL Melanoma)	IC50 A498 (A498 Renal cancer)	IC50 H226 (H226)	stability in PBS buffer [2]	further results
CC(=O)OC1C(=O)C2(C)C(OC(=O)CC(O)C(=O)O)CC3OCC3(OC(C)=O)C2C(OC(=O)c2ccccc2)C2(O)CC(OC(=O)C(OC(=O)CC(O)C(=O)O)C(NC(=O)c3ccccc3)c3ccccc3)C(C)=C1C2(C)C (stereo not drawn) [Compound 8, 2′, 7-Bis(malyl)paclitaxel]	500 µg/mL	no degradation to the parent drug	no pacl.^b	0.069 µg/mL (≈ 0.0635 µM)	0.059 µg/mL (≈ 0.0543 µM)	0.167 µg/mL (≈ 0.154 µM)	0.049 µg/mL (≈ 0.0451 µM)	0.311 µg/mL (≈ 0.286 µM)	0.436 µg/mL (≈ 0.401 µM)	0.241 µg/mL (≈ 0.222 µM)	sufficient stability; also recorded: no degradation to the parent drug	cytotoxic activity compared to paclitaxel (human tumor cell lines): reduced cytotoxic activity
CC(=O)O[C@H]1C(=O)[C@@]2(C)[C@H]([C@H](OC(=O)c3ccccc3)[C@]3(O)C[C@H](OC(=O)[C@H](OC(C)=O)[C@@H](NC(=O)c4ccccc4)c4ccccc4)C(C)=C1C3(C)C)[C@]1(OC(C)=O)CO[C@@H]1C[C@@H]2O [2′-acetyl-paclitaxel]	–	–	–	–	–	–	–	–	–	–	–	activity in microtubule assembly assays (microtubule assembly): loss of the ability to promote microtubule assembly; cytotoxic activity compared with paclitaxel [4]: almost the same as for paclitaxel
CC(=O)O[C@H]1C(=O)[C@]2(C)[C@@H](OC(C)=O)C[C@H]3OC[C@@]3(OC(C)=O)[C@H]2[C@H](OC(=O)c2ccccc2)[C@]2(O)C[C@H](OC(=O)[C@H](O)[C@@H](NC(=O)c3ccccc3)c3ccccc3)C(C)=C1C2(C)C [7-acetylpaclitaxel]	–	–	–	–	–	–	–	–	–	–	–	activity in microtubule assembly assays (microtubule assembly): as active as paclitaxel
CC(=O)O[C@H]1C(=O)[C@@]2(C)[C@H]([C@H](OC(=O)c3ccccc3)[C@]3(O)C[C@H](OC(=O)[C@H](O)[C@@H](NC(=O)c4ccccc4)c4ccccc4)C(C)=C1C3(C)C)[C@]1(OC(C)=O)CO[C@@H]1C[C@@H]2O [paclitaxel, Paclitaxel]	–	–	–	<0.003 µg/mL	<0.003 µg/mL	<0.003 µg/mL	0.033 µg/mL (≈ 0.0386 µM)	<0.003 µg/mL	0.005 µg/mL (≈ 0.00586 µM)	<0.003 µg/mL	–	Water Solubility ([1]; suspended to 2 mg/ml, sonicated 15 minutes, centrifuged, HPLC): 10 µg/mL; IC50 (OVCAR-3 cells): 0.25 nM

Further lines, with some results ahead:

Water Solubility [1]	degradation to paclitaxel in human plasma [3]	T1/2 Human Plasma [3]	IC50 MCF7 (MCF7 Breast cancer)	IC50 EVSA-T (EVSA-T Breast cancer)	IC50 WIDR (WIDR Colon cancer)	IC50 IGROV (IGROV Ovarian cancer)	IC50 M19 MEL (M19 MEL Melanoma)	IC50 A498 (A498 Renal cancer)	IC50 H226 (H226)	SMILES	stability in PBS buffer [2]	further results
600 µg/mL	fast hydrolysis rate	4 h	<0.003 µg/mL	<0.003 µg/mL	<0.003 µg/mL	0.233 µg/mL	<0.003 µg/mL	<0.003 µg/mL	<0.003 µg/mL	CC(=O)O[C@H]1C(=O)[C@@]2(C)[C@H]([C@H](OC(=O)c3ccccc3)[C@]3(O)C[C@H](OC(=O)[C@H](OC(=O)CC(O)C(=O)[O-])[C@@H](NC(=O)c4ccccc4)c4ccccc4)C(C)=C1C3(C)C)[C@]1(OC(C)=O)CO[C@@H]1C[C@@H]2O.[Na+] (stereo partly drawn) [Compound 6, Sodium salt of 2′-malylpaclitaxel]	sufficient stability	water solubility compared with paclitaxel [1]: Best water solubility; water solubility relative to paclitaxel (times more watersoluble) [1]: sixty; amount degraded to paclitaxel within 4 hours ([3]; within 4 hours, matrix not printed in the sentence (human plasma per Table I)): about 500; activity against OVCAR-3 cells compared to paclitaxel (OVCAR-3 cells): comparable; IC50 (OVCAR-3 cells): 0.8 nM
3 µg/mL	no degradation to the parent drug	no pacl.^b	0.39 µg/mL (≈ 0.402 µM)	0.3 µg/mL (≈ 0.309 µM)	0.589 µg/mL (≈ 0.607 µM)	0.241 µg/mL (≈ 0.248 µM)	1.344 µg/mL (≈ 1.39 µM)	1.435 µg/mL (≈ 1.48 µM)	0.706 µg/mL (≈ 0.728 µM)	CC(=O)O[C@H]1C(=O)[C@]2(C)[C@@H](OC(=O)CC(O)C(=O)O)C[C@H]3OC[C@@]3(OC(C)=O)[C@H]2[C@H](OC(=O)c2ccccc2)[C@]2(O)C[C@H](OC(=O)[C@H](O)[C@@H](NC(=O)c3ccccc3)c3ccccc3)C(C)=C1C2(C)C (stereo partly drawn) [Compound 11, 7-Malylpaclitaxel]	sufficient stability; also recorded: no degradation to the parent drug	cytotoxic activity compared to paclitaxel (human tumor cell lines): reduced cytotoxic activity
200 µg/mL	–	20 h	<0.003 µg/mL	<0.003 µg/mL	<0.003 µg/mL	<0.003 µg/mL	0.003 µg/mL (≈ 0.00309 µM)	0.039 µg/mL (≈ 0.0402 µM)	0.01 µg/mL (≈ 0.0103 µM)	CC(=O)O[C@H]1C(=O)[C@@]2(C)[C@H]([C@H](OC(=O)c3ccccc3)[C@]3(O)C[C@H](OC(=O)[C@H](OC(=O)CC(O)C(=O)O)[C@@H](NC(=O)c4ccccc4)c4ccccc4)C(C)=C1C3(C)C)[C@]1(OC(C)=O)CO[C@@H]1C[C@@H]2O (stereo partly drawn) [Compound 5, 2′-Malylpaclitaxel]	sufficient stability; also recorded: stable	paclitaxel detected in PBS-buffer after 24 hours ([2]; PBS-buffer pH 7.4, after 24 hours): only traces

— patent US6344571B2, “Water soluble analogs and prodrugs of paclitaxel” (Pharmachemie B.V., priority 1998, dated 2002)
